The source of these data is patent US12421249B2, “Inhibitors of APOL1 and methods of using same” (Vertex Pharmaceuticals Incorporated, priority 2020, dated 2025).

The target in one experiment is T1, APOL1 (Homo sapiens, UniProt O14791).
T1 sequence (O14791 1-398 S342G/I384M): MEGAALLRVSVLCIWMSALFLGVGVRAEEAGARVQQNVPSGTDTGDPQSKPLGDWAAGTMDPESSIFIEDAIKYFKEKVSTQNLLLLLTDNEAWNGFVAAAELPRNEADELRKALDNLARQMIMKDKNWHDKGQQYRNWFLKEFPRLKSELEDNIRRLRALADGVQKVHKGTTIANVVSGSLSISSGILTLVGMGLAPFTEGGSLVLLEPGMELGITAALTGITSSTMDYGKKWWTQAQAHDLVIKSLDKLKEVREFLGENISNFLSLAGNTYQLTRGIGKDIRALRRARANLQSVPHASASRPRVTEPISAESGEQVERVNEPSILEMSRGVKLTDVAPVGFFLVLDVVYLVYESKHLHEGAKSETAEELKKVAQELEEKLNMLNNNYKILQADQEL
Kind of experiment: Multi-Tox Assay (MultiTox-Fluor Multiplex Cytotoxicity Assay in tet-inducible APOL1 T-REx-HEK293 cells; Table 46 does not say which APOL1 variant G0/G1/G2). The conditions noted are these: APOL1 variant not given; for IC50: IP50 = IC50 for cell proliferation. The class given is cell-based.

For another experiment, the target named is T2, APOL1 G1 (Homo sapiens, UniProt O14791, I384M/S342G).
T2 sequence (O14791 28-398 S342G/I384M): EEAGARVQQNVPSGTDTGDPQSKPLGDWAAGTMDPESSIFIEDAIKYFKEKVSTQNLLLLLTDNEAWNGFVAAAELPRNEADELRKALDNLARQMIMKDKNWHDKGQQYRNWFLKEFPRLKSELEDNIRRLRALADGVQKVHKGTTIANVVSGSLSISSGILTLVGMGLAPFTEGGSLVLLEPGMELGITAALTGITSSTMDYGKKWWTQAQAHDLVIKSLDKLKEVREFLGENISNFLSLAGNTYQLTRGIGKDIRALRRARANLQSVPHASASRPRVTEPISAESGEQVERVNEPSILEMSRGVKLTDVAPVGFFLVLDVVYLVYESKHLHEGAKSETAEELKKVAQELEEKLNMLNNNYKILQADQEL
Description: Trypanosoma brucei brucei Lysis Assay Using APOL1 Recombinant Protein (AlamarBlue viability readout). The conditions noted are these: Trypanosome Assay; for IC50: IP50 = IC50 for cell proliferation, read-out: Trypanosome Assay IP50; for Emax: read-out: Trypanosome Assay Max Activity (%). The class given is cell-based. In outline:
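Percent viability comes from AlamarBlue (resazurin→resorufin) fluorescence interpolated on a standard curve of known parasite numbers, with no-APOL1 wells as 100%. Parasites (Lister 427 bloodstream form, 120,000/well, serum-free assay medium) meet 0.05 μg/mL APOL1 (~EC90). Compounds span a 10-point series, 0.1% DMSO final.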
In general terms: Alamar Blue is a resazurin reagent that responds to reducing activity.

`C[C@H]1C[C@@]2(C[C@@H](c3cocn3)N1)OCCc1cc(Cl)sc12` (racemic) [Compound 79] gave an IC50 on APOL1 of less than 50 nM. For the same molecule, at APOL1 G1, the IC50 was less than 50 nM and the Emax is 97.5%.

Consider `C[C@H]1C[C@@]2(C[C@@H](c3ccc(=O)n(C)c3)N1)OCCc1cc(Cl)sc12` (racemic) [Compound 80], for which the IC50 on APOL1 and on APOL1 G1 was less than 50 nM throughout.

Consider `C[C@H]1C[C@@]2(C[C@@H](c3ccccc3)N1)OCCc1cc(Cl)sc12` (racemic) [Compound 81], for which the IC50 against APOL1 and at APOL1 G1 was less than 50 nM each time.

Consider `Cc1ncc([C@@H]2C[C@]3(C[C@H](C)N2)OCCc2cc(Cl)sc23)cn1` (racemic) [Compound 82], for which the IC50 on APOL1 and on APOL1 G1 was less than 50 nM throughout. In addition, the Emax at APOL1 G1 stood at 106%.

`C[C@H]1C[C@@]2(C[C@@H](c3ccccn3)N1)OCCc1cc(Cl)sc12` (racemic) [Compound 83]: the IC50 against APOL1 and on APOL1 G1 was less than 50 nM each time. Moreover, the Emax on APOL1 G1 is 111%.

Regarding `COc1ccc2[nH]c([C@@H]3C[C@]4(C[C@H](C)N3)OCCc3cc(Cl)sc34)cc2n1` (racemic) [Compound 84], the IC50 against APOL1 and at APOL1 G1 was less than 50 nM in each case. For the same molecule, at APOL1 G1, the Emax stood at 112%.

On to `C[C@H]1C[C@@]2(C[C@@H](c3c[nH]cn3)N1)OCCc1cc(Cl)sc12` (racemic) [Compound 85], for which the IC50 against APOL1 and on APOL1 G1 was less than 50 nM in each case.

For the molecule `C[C@H]1C[C@@]2(C[C@@H](c3cc(C4CC4)no3)N1)OCCc1cc(Cl)sc12` (racemic) [Compound 87], the IC50 against APOL1 and at APOL1 G1 was less than 50 nM each time.

For the molecule `C[C@H]1C[C@@]2(C[C@@H](c3cc(-c4ccccn4)n[nH]3)N1)OCCc1cc(Cl)sc12` (racemic) [Compound 88], on APOL1, the 90% effect concentration (IC90) was less than 50 nM, the “Multi-Tox Assay Max Activity (%)” value is reported as 99.3% and the IC50 was less than 50 nM. In addition, at APOL1 G1, the IC50 was less than 50 nM and the Emax stood at 98%.

Take `C[C@H]1C[C@@]2(C[C@@H](c3ccc(N(C)C)nc3)N1)OCCc1cc(Cl)sc12` (racemic) [Compound 89]: at APOL1, the IC50 was less than 50 nM. Further, on APOL1 G1, the IC50 was less than 50 nM and the Emax was determined as 101%.

The molecule `COCCn1cc([C@@H]2C[C@]3(C[C@H](C)N2)OCCc2cc(Cl)sc23)cn1` (racemic) [Compound 90] registered an IC50 against APOL1 of less than 50 nM. Also, at APOL1 G1, the IC50 is less than 50 nM and the Emax amounted to 104%.

In the case of `C[C@H]1C[C@@]2(C[C@@H](c3cccnn3)N1)OCCc1cc(Cl)sc12` (racemic) [Compound 92], at APOL1, the IC50 was less than 50 nM. Besides, on APOL1 G1, the IC50 was less than 50 nM and the Emax amounted to 103%.

`C[C@H]1C[C@@]2(C[C@@H](c3ccnnc3)N1)OCCc1cc(Cl)sc12` (racemic) [Compound 93]: on APOL1, the IC50 is less than 50 nM. In addition, at APOL1 G1, the IC50 lay in the range of 50 to 500 nM and the Emax amounted to 112%.

As for `Cc1ncc([C@@H]2C[C@]3(C[C@H](C)N2)OCCc2cc(Cl)sc23)o1` (racemic) [Compound 94], the IC50 on APOL1 and on APOL1 G1 was less than 50 nM each time. Further, the Emax at APOL1 G1 turned out to be 104%.

In turn, `C[C@H]1C[C@@]2(C[C@@H](c3cnc(NC(C)(C)CO)nc3)N1)OCCc1cc(Cl)sc12` (racemic) [Compound 95] had an IC50 against APOL1 of less than 50 nM. On APOL1 G1, the IC50 was 50 to 500 nM and the Emax was 106%.

Consider `C[C@H]1C[C@@]2(C[C@@H](c3ccon3)N1)OCCc1cc(Cl)sc12` (racemic) [Compound 96], for which, on APOL1, the IC50 was less than 50 nM. Further, on APOL1 G1, the IC50 is less than 50 nM and the Emax was determined as 104%.

Consider `Cc1cc([C@@H]2C[C@]3(C[C@H](C)N2)OCCc2cc(Cl)sc23)nn1C` (racemic) [Compound 98], for which, on APOL1, the “Multi-Tox Assay Max Activity (%)” value worked out at 99.0% and the IC50 is less than 50 nM. In addition, on APOL1 G1, the IC50 was less than 50 nM and the Emax was 110%.

Take `COc1ccc([C@@H]2C[C@]3(C[C@H](C)N2)OCCc2cc(Cl)sc23)cc1O` (racemic) [Compound 99]: at APOL1, the “Multi-Tox Assay Max Activity (%)” value was 99.0% and the IC50 was less than 50 nM. Also, at APOL1 G1, the IC50 is less than 50 nM and the Emax was 102%.

`C[C@H]1C[C@@]2(C[C@@H](c3cnn(C4CCOCC4)c3)N1)OCCc1cc(Cl)sc12` (racemic) [Compound 100] yielded an IC50 at APOL1 of less than 50 nM. In addition, at APOL1 G1, the IC50 is less than 50 nM and the Emax came out at 99%.

On to `C[C@H]1C[C@@]2(C[C@@H](c3cnccn3)N1)OCCc1cc(Cl)sc12` (racemic) [Compound 101], for which, at APOL1, the “Multi-Tox Assay Max Activity (%)” value is listed as 100.0% and the IC50 is less than 50 nM. Further, on APOL1 G1, the IC50 was in the range of 50 to 500 nM and the Emax is 114%.

As to `CCOc1cc([C@@H]2C[C@]3(C[C@H](C)N2)OCCc2cc(Cl)sc23)ccc1O` (racemic) [Compound 102], at APOL1, the “Multi-Tox Assay Max Activity (%)” value turned out to be 99.8% and the IC50 is less than 50 nM. Also, at APOL1 G1, the IC50 was less than 50 nM and the Emax was found to be 112%.

As for `C[C@H]1C[C@@]2(C[C@@H](c3cnn(CC(C)(CO)CO)c3)N1)OCCc1cc(Cl)sc12` (racemic) [Compound 103], the IC50 against APOL1 was less than 50 nM; on APOL1 G1, 50 to 500 nM. Moreover, the Emax on APOL1 G1 worked out at 118%.

In the case of `Cc1nc([C@@H]2C[C@]3(C[C@H](C)N2)OCCc2cc(Cl)sc23)co1` (racemic) [Compound 104], on APOL1, the “Multi-Tox Assay Max Activity (%)” value is 99.3% and the IC50 is less than 50 nM. On APOL1 G1, the IC50 lay in the range of 50 to 500 nM and the Emax stood at 100%.

In the case of `COc1ccccc1-c1ncc([C@@H]2C[C@]3(C[C@H](C)N2)OCCc2cc(Cl)sc23)cn1` (racemic) [Compound 105], on APOL1, the “Multi-Tox Assay Max Activity (%)” value is 99.3% and the IC50 was less than 50 nM. Besides, on APOL1 G1, the IC50 was less than 50 nM and the Emax turned out to be 72%.

As to `COCc1cc([C@@H]2C[C@]3(C[C@H](C)N2)OCCc2cc(Cl)sc23)no1` (racemic) [Compound 106], the IC50 against APOL1 and at APOL1 G1 was less than 50 nM throughout. Besides, at APOL1 G1, the Emax stood at 107%.

For `CCOc1ccc([C@@H]2C[C@]3(C[C@H](C)N2)OCCc2cc(Cl)sc23)cc1O` (racemic) [Compound 107], at APOL1, the “Multi-Tox Assay Max Activity (%)” value turned out to be 99.7% and the IC50 is less than 50 nM. Besides, at APOL1 G1, the IC50 is less than 50 nM and the Emax is 92.5%.

As to `Cc1cc([C@@H]2C[C@]3(C[C@H](C)N2)OCCc2cc(Cl)sc23)ccc1O` (racemic) [Compound 108], on APOL1, the “Multi-Tox Assay Max Activity (%)” value worked out at 99.0% and the IC50 was less than 50 nM. Besides, at APOL1 G1, the IC50 was less than 50 nM and the Emax came to 94.5%.

For `C[C@H]1C[C@@]2(C[C@@H](c3cccc(C(N)=O)c3)N1)OCCc1cc(Cl)sc12` (racemic) [Compound 109], on APOL1, the “Multi-Tox Assay Max Activity (%)” value is listed as 100.0% and the IC50 was less than 50 nM. At APOL1 G1, the IC50 lay in the range of 50 to 500 nM and the Emax worked out at 100%.

Turning to `COc1nccc([C@@H]2C[C@]3(C[C@H](C)N2)OCCc2cc(Cl)sc23)n1` (racemic) [Compound 110], the IC50 against APOL1 was less than 50 nM. Further, on APOL1 G1, the IC50 was in the range of 50 to 500 nM and the Emax was 115%.

The IC90 is the concentration at which the effect reaches the 90% level. A low value points to an effect from little substance.
